Like-named read-outs stand apart in the source and are kept apart here. Positions of bridges follow the written chain, without caps; N, C: chain ends. Non-standard residues stand in square brackets, D forms with d. Residues, ends and D or L forms follow the SMILES beside them. R8 = C=CCCCCCC[C@@](C)(N)C(=O)O; S5 = C=CCCC[C@](C)(N)C(=O)O
Experiments:
circular dichroism = conditions: 10 mM phosphate buffer; pH 7.4; ns °C; 100 uM
MRSA = type: cell-based
Description: (§1) Antimicrobial Activity Assay The following microbroth dilution protocol was adapted to determine the MIC of each peptide. First, Mueller-Hinton broth (MHB) was passed through an anion exchange column to remove polyanionic species and generate refined MHB. This refined broth was then used in the standard microbroth dilution protocol devised by Hancock et al. for 96 well plates. […] Briefly, bacterial cells were grown overnight in refined MHB at 37° C. and then diluted and allowed to grow again for several hours. Serial dilutions of peptide stocks in water (10 μl) were prepared using clear round-bottom polypropylene 96-well plates. Then 90 μl of bacteria in refined MHB was added to give a final inoculum of 5×10^5 CFU/ml. The plates were then covered with porous tape to reduce evaporation, and incubated for 20-24 hours at 37° C.

S. Aureus = type: cell-based
Description: as §1

P. aeruginosa = type: cell-based
Description: as §1

B. cereus = type: cell-based
Description: as §1

[1] = tested on: human red blood cells (RBCs); type: cell-based; conditions: for % Hemolysis at 50 μg/ml: red cells of human, 1 h
Excerpt: One of the key obstacles that have long impeded the use of AMPs in systemic infections such as sepsis is their tendency to lyse human cells, such as red blood cells (RBCs). Thus, it is critical to minimize hemolytic activity as much as possible to achieve a therapeutic window. […] Of note, in those circumstances where hydrocarbon staples increase hemolytic activity due to increasing hydrophobicity, the alkene moiety can be modified, e.g., by dihydroxylation, to install hydrophilic residues and potentially mitigate hemolysis.
Hemolytic Activity Assay For the determination of hemolytic activity, the following protocol was applied: human blood samples were centrifuged to isolate red blood cells (RBCs), which were then washed and suspended in phosphate-buffered saline to yield a 1% (v/v) suspension. This suspension was then added to serial dilutions of peptide stocks in water in clear round-bottom polypropylene 96-well plates and the plates incubated for 1 hour at 37° C. After incubation, the plates were centrifuged and the supernatant isolated to determine the amount of hemoglobin released using a spectrophotometer (570 nm). The minimum hemolytic concentration (MHC) was determined by assessing the peptide concentration at which there was less than 1% hemoglobin release.

E. coli = type: cell-based, Escherichia coli; conditions: for Antimicrobial Activity NIC (μg/ml) E. coli: Table 1, microbroth dilution, refined MHB, 20-24 hours at 37° C.
Description: as §1

| SMILES | helicity (circular dichroism) | % Hemolysis at 50 μg/ml [1] | Antimicrobial Activity NIC (μg/ml) E. coli (E. coli) | further results |
| --- | --- | --- | --- | --- |
| CC(C)C[C@H](NC(=O)[C@H](CC(C)C)NC(=O)[C@H](CCCNC(=N)N)NC(=O)[C@H](Cc1c[nH]cn1)NC(=O)[C@@H](NC(=O)[C@H](CCCNC(=N)N)NC(=O)CNC(=O)[C@@H](NC(=O)[C@@H]1CCCN1C(=O)[C@H](Cc1c[nH]c2ccccc12)NC(=O)[C@H](CCC(N)=O)NC(=O)[C@H](CC(C)C)NC(=O)[C@]1(C)CCCC=CCCC[C@](C)(NC(=O)[C@H](CCCNC(=N)N)NC(=O)[C@@H](N)[C@@H](C)O)C(=O)N[C@@H](CO)C(=O)N[C@@H](CCCNC(=N)N)C(=O)N[C@@H](C)C(=O)N1)C(C)C)C(C)C)C(=O)N[C@@H](CCCNC(=N)N)C(=O)N[C@@H](CCCCN)C(N)=O [BFStap(i + 4)11] (H-TR[S5]SRA[S5]LQWPVGRVHRLLRK-NH2; staple 3-7) | 8% | 3.1% |  | Antimicrobial Activity MIC (μg/ml) MRSA (MRSA; Table 2): >50 µg/mL; Antimicrobial Activity MIC (μg/ml) S. Aureus (S. Aureus; Table 2): 50 µg/mL; Antimicrobial Activity MIC (μg/ml) P. aeruginosa (P. aeruginosa; Table 2): 12.5 µg/mL; Antimicrobial Activity MIC (μg/ml) B. cereus (B. cereus; Table 2): 25 µg/mL; hemolytic activity (in words) [1]: low hemolytic activity; Antimicrobial Activity MIC (μg/ml) E. coli (E. coli; Table 2): 6.25 µg/mL |
| CC(C)C[C@H](NC(=O)CNC(=O)[C@H](C)NC(=O)[C@H](CCCNC(=N)N)NC(=O)[C@H](CO)NC(=O)[C@H](CO)NC(=O)[C@H](CCCNC(=N)N)NC(=O)[C@@H](N)[C@@H](C)O)C(=O)N[C@]1(C)CCCCCCC=CCCC[C@@](C)(C(=O)N[C@@H](CCCNC(=N)N)C(=O)N[C@@H](CC(C)C)C(=O)N[C@@H](CC(C)C)C(=O)N[C@@H](CCCNC(=N)N)C(=O)N[C@@H](CCCCN)C(N)=O)NC(=O)[C@H](C(C)C)NC(=O)[C@H](CCCNC(=N)N)NC(=O)CNC(=O)[C@H](C(C)C)NC(=O)[C@@H]2CCCN2C(=O)[C@H](Cc2c[nH]c3ccccc23)NC1=O [BFStap(i + 7)4] (H-TRSSRAGL[R8]WPVGRV[S5]RLLRK-NH2; staple 9-16; N-terminus and C-terminus assumed) | 2.4% | 57.0% | 3.1 µg/mL |  |
| CC(C)C[C@H](NC(=O)[C@H](CC(C)C)NC(=O)[C@H](CCCNC(=N)N)NC(=O)[C@H](Cc1c[nH]cn1)NC(=O)[C@@H](NC(=O)[C@]1(C)CCCC=CCCCCCC[C@@](C)(NC(=O)[C@H](C)NC(=O)[C@H](CCCNC(=N)N)NC(=O)[C@H](CO)NC(=O)[C@H](CO)NC(=O)[C@H](CCCNC(=N)N)NC(=O)[C@@H](N)[C@@H](C)O)C(=O)N[C@@H](CC(C)C)C(=O)N[C@@H](CCC(N)=O)C(=O)N[C@@H](Cc2c[nH]c3ccccc23)C(=O)N2CCC[C@H]2C(=O)N[C@@H](C(C)C)C(=O)NCC(=O)N1)C(C)C)C(=O)N[C@@H](CCCNC(=N)N)C(=O)N[C@@H](CCCCN)C(N)=O [BFStap(i + 7)6] (H-TRSSRA[R8]LQWPVG[S5]VHRLLRK-NH2; staple 7-14) | 7.3% | 9.5% |  | Antimicrobial Activity MIC (μg/ml) MRSA (MRSA): >50 µg/mL; Antimicrobial Activity MIC (μg/ml) S. Aureus (S. Aureus): 25 µg/mL; Antimicrobial Activity MIC (μg/ml) P. aeruginosa (P. aeruginosa): 12.5 µg/mL; Antimicrobial Activity MIC (μg/ml) B. cereus (B. cereus): 12.5 µg/mL; Antimicrobial Activity MIC (μg/ml) E. coli (E. coli): 6.25 µg/mL |
| CC(C)C[C@@H]1NC(=O)CNC(=O)[C@](C)(NC(=O)[C@H](CCCNC(=N)N)NC(=O)[C@H](CO)NC(=O)[C@H](CO)NC(=O)[C@H](CCCNC(=N)N)NC(=O)[C@@H](N)[C@@H](C)O)CCCCCCC=CCCC[C@@](C)(C(=O)N[C@@H](CCCNC(=N)N)C(=O)N[C@H](C(=O)N[C@@H](Cc2c[nH]cn2)C(=O)N[C@@H](CCCNC(=N)N)C(=O)N[C@@H](CC(C)C)C(=O)N[C@@H](CC(C)C)C(=O)N[C@@H](CCCNC(=N)N)C(=O)N[C@@H](CCCCN)C(N)=O)C(C)C)NC(=O)[C@H](C(C)C)NC(=O)[C@@H]2CCCN2C(=O)[C@H](Cc2c[nH]c3ccccc23)NC(=O)[C@H](CCC(N)=O)NC1=O [BFStap(i + 7)7] (H-TRSSR[R8]GLQWPV[S5]RVHRLLRK-NH2; staple 6-13; N-terminus and C-terminus assumed) | 11.6% | 3.0% | 22.9 µg/mL |  |
| CC(C)C[C@@H]1NC(=O)CNC(=O)[C@H](C)NC(=O)[C@H](CCCNC(=N)N)NC(=O)[C@H](CO)NC(=O)[C@H](CO)NC(=O)[C@](C)(NC(=O)[C@@H](N)[C@@H](C)O)CCCCCCC=CCCC[C@@](C)(C(=O)N[C@@H](Cc2c[nH]c3ccccc23)C(=O)N2CCC[C@H]2C(=O)N[C@H](C(=O)NCC(=O)N[C@@H](CCCNC(=N)N)C(=O)N[C@H](C(=O)N[C@@H](Cc2c[nH]cn2)C(=O)N[C@@H](CCCNC(=N)N)C(=O)N[C@@H](CC(C)C)C(=O)N[C@@H](CC(C)C)C(=O)N[C@@H](CCCNC(=N)N)C(=O)N[C@@H](CCCCN)C(N)=O)C(C)C)C(C)C)NC1=O [BFStap(i + 7)9] (H-T[R8]SSRAGL[S5]WPVGRVHRLLRK-NH2; staple 2-9; N-terminus and C-terminus assumed) | 0% | 4.3% | 41.7 µg/mL |  |
| CC(C)C[C@H](NC(=O)[C@H](CC(C)C)NC(=O)[C@H](CCCNC(=N)N)NC(=O)[C@H](Cc1c[nH]cn1)NC(=O)[C@@H](NC(=O)[C@H](CCCNC(=N)N)NC(=O)CNC(=O)[C@@H](NC(=O)[C@@H]1CCCN1C(=O)[C@H](Cc1c[nH]c2ccccc12)NC(=O)[C@H](CCC(N)=O)NC(=O)[C@]1(C)CCCC=CCCCCCC[C@@](C)(N)C(=O)N[C@@H](CCCNC(=N)N)C(=O)N[C@@H](CO)C(=O)N[C@@H](CO)C(=O)N[C@@H](CCCNC(=N)N)C(=O)N[C@@H](C)C(=O)NCC(=O)N1)C(C)C)C(C)C)C(=O)N[C@@H](CCCNC(=N)N)C(=O)N[C@@H](CCCCN)C(N)=O [BFStap(i + 7)10] (H-[R8]RSSRAG[S5]QWPVGRVHRLLRK-NH2; staple 1-8) | 0% | 2.3% | >100 µg/mL |  |
